Test results reported in US20230142739A1, “PROTEIN-PROTEIN INTERACTION STABILIZERS” (The Regents of the University of California, priority 2020, published 2023).

Columns and labels:
ER [1] = biological target: T1, ER (Homo sapiens, UniProt P31947); assay: MS (KD,app), ER; format: binding; conditions: 24 hr incubation
ER [2] = biological target: T1, ER; assay: Fp (EC50)/fold-stabilization of peptide, ER; format: binding; conditions: 24 hr incubation
14-3-3σ(C42)/ERα-pp = biological target: T2, 14-3-3σ(C42)/ERα-pp (Homo sapiens, UniProt P31947, C38N/N42C); assay: Fluorescence anisotropy, fragment titration to 14-3-3σ(C42) and fluorescein-ERα-pp; conditions: 1 μM 14-3-3σ(C42), 100 nM fluorescein-ERα-pp; read-out: EC50 (anisotropy, stabilization of ERα-pp binding)
T2 construct: with a truncated C-terminus after T231; His6 (N, cleaved yes); made in house; host or cells: E. coli NiCo21 (DE3), pPROEX HTb
T2 sequence (P31947 1-231 C38N/N42C, other chains not shown): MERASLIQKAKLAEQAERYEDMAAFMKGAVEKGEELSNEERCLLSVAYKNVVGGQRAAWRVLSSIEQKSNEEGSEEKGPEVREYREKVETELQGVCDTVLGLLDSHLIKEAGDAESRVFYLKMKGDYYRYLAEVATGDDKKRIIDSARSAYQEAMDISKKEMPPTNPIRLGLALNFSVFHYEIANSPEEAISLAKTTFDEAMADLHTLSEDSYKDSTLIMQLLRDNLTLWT
Procedure: We observed the same trend when we titrated the fragments into a mixture of 1 μM 14-3-3σ(C42) and 100 nM fluorescein-ERα-pp, conditions under which half of the peptide was initially bound. […] The maximum effect was instantaneous at a saturating concentration (100 μM).
Fluorescence Anisotropy. […] Final DMSO concentration in the assay was always 1%. Dilution series of 14-3-3 protein or fragments were made in black, round-bottom 384-microwell plates (Corning) in a final sample volume of 10 μL in triplicates. Fluorescence anisotropy measurements were performed directly and after overnight incubation at room-temperature, using a Tecan Infinite F500 plate reader (filter set λex: 485±20 nm, λem: 535±25 nm). Data reported are at endpoint. EC50 values were obtained from fitting the data with a four-parameter logistic model (4PL) in GraphPad Prism 6.

14-3-3/ERα complex = biological target: T3, 14-3-3/ERα complex (Homo sapiens, UniProt P61981); assay: Selectivity screening FA, ERα peptide; format: binding
T3 construct: the full length 14-3-3γ was dialysis against 25 mM HEPES pH 7.5; made in house; host or cells: E. coli BL21(DE3), pPROEX HTb
T3 sequence (P61981 1-247): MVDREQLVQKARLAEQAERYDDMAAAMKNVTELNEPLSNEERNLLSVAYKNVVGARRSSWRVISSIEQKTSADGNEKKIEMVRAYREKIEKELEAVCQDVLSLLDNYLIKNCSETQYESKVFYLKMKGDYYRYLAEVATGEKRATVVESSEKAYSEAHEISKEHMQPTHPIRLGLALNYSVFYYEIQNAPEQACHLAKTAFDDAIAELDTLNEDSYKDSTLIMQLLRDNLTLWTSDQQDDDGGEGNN
Description: Selectivity screening of covalent fragments. Drugging the hub protein 14-3-3 raises the challenge of selectivity. We hypothesized that the high level of cooperative behavior for 14-3-3/Pin1_72/28 complex is a function of the unique functionality and topology of the interface, specifically the +1 and +3 amino acid of Pin1_72 with the covalent fragment. We further rationalized that this cooperativity would likely translate to high selectivity. To test this hypothesis, fragments 13, 27 and 28 were screened at a single fragment concentration (100 μM) against a panel of 13 peptides as diverse representatives of 14-3-3 client proteins, differing in size and hydrophobicity of the +1 amino acid (FIG. 22A).
(§1) Fluorescence Anisotropy (FA) Assays.

14-3-3/Pin1_72 complex = biological target: T4, 14-3-3/Pin1_72 complex (Homo sapiens, UniProt P61981); assay: Cooperativity analysis, 14-3-3 titrations at varied constant fragment concentration; format: binding; conditions: 8 μM compound
T4 construct: the full length 14-3-3γ was dialysis against 25 mM HEPES pH 7.5; made in house; host or cells: E. coli BL21(DE3), pPROEX HTb
Description: Cooperativity in ternary complex formation. In contrast to PPI inhibition, where affinity to one of the protein pockets is the driving force for drug development, design of molecular glues is driven by cooperative ternary complex formation. Both CC50 and SF values are concentration dependent values and might differ based on assay design. […] Cooperative complex formation is often accompanied by structural changes of the interface of a complex which translates to increased stability of the ternary com-plex. In order to assess cooperativity of the ternary complex, fragments 13, 23, 27 and 28 were selected for cooper-activity analysis. The α-factor of the fragments were determined using 14-3-3 titrations in the presence of varied, but constant concentration of fragment in a dose-dependent manner. […] Further, the interval of change in stabilization further describes the systems cooperative behaviour.
However, at higher concentration regimes significant assay interference was observed, probably due to compound aggregation. Fragments 23, 27 and 28 all reached saturation or approached saturation enabling accurate determination of α-factor. […] KD remains constant also at higher concentrations of FC-A, indicating non-specific effects.

14-3-3/NFκBp65 peptide = 14-3-3/NFκBp65 peptide (Homo sapiens, UniProt P31947); assay: Fluorescence polarization assay, FITC-NFκBp65 peptide binding to 14-3-3 with increasing fragment
14-3-3/NFκBp65 peptide, sequence (P31947 whole entry, other chains not shown, the tested form may be a part): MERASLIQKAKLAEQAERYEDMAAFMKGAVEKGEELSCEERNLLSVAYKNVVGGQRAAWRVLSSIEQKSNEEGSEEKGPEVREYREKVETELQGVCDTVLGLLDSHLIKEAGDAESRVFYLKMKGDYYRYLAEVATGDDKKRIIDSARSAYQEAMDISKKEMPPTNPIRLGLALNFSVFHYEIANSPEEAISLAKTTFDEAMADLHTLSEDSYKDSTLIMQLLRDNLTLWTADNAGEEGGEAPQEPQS
Description: As the primary assays to test for binding and activity we used X-ray protein crystallography (crystal soaking) and a fluorescence polarization assay (FP) employing a fluorophore-labelled (FITC) version of the NFκBp65 peptide. After some rounds of analogues testing, we were able to identify the molecules' electrochemical properties that are enabling the lysine attach to the carbonyl feature of the fragment. […] This reflects a principal feature of orthosteric PPI stabilization which is based on the direct, simultaneous physical interaction of the stabilizer with both protein partners.
In addition to the hydrophobic interaction of the primary phenyl ring of TCF521-129 with the side chain of Ile46, the 2,6-dimethylmorpholine substituent sits on top of this side chain and additionally contacts with one of its methyl groups Pro47 and Gly48. The opposite methyl is engaging a hydrophobic patch in the ‘roof’ of the 14-3-3 groove comprised of Leu218, Ile219, and […] (FIG. 9B, upper row). […] The potential PPI stabilizing activity of both fragments were tested in a fluorescence polarization assay measuring the binding of a fluorescently-labelled (FITC) NFκBp65 peptide to 14-3-3 in the presence of an increasing concentration of the fragment.

Pin1_72/14-3-3σΔC = biological target: T5, Pin1_72/14-3-3σΔC (Homo sapiens, UniProt P31947); assay: X-ray crystal soaking; format: binding; conditions: 10 mM fragment soak
T5 construct: The 14-3-3σ protein was C-terminally truncated (ΔC) after T231 to enhance crystallization; His6 (cleaved yes); made in house; host or cells: E. coli BL21(DE3), pPROEX HTb
T5 sequence (P31947 1-231 limits assumed, stated change not applied, other chains not shown): as the sequence (P31947 1-231 C38N/N42C, other chains not shown) above, with N38C, C42N counted along it
Procedure: X-Ray Crystallography. […] B-Raf/14-3-3σΔC and Abl1/14-3-3σΔC crystals were grown in a sitting drop set up. […] All crystals were directly flash-frozen in liquid nitrogen and data acquisition took place at either the P11 beamline of […] campus, Hamburg, Germany) or i-03/i-24 beamline of the diamond light source (Oxford, UK) or in-house. Fragment screening was performed by crystal soaking, whereby a final concentration of 10 mM fragment was added to fully grown crystals (final DMSO ≤1%). The fragment/crystal mixtures incubated for seven days prior to data acquisition. The diffraction data were analyzed with […] pipeline and MolRep was used for phasing. For model refinement Coot, Refmac5 and phenix.refine were utilized in iterative cycles. The elbow software of the phenix suite was used for ligand preparation based on fragment SMILES. Figures were generated with PyMOL© (V2.0.6, Schrodinger LLC).

Pin1_72/14-3-3γ = biological target: T6, Pin1_72/14-3-3γ (Homo sapiens, UniProt P61981+Q13526); assay: Fluorescence anisotropy protein titration, Pin1_72/14-3-3γ at constant compound; format: binding; conditions: based on internal DMSO control and 100 μM fragment
T6 construct: the full length 14-3-3γ was dialysis against 25 mM HEPES pH 7.5; made in house; host or cells: E. coli BL21(DE3), pPROEX HTb
Description: Inspired by the binding poses of 3 and 9 we combined their structural features to improve stabilization. […] In case of complex stabilization, a left shift of apparent KD values is expected, here described as stabilization factors (SF).
as §1

T1 sequence (P31947 whole entry, other chains not shown): as the sequence (P31947 whole entry, other chains not shown, the tested form may be a part) above

## CC(C)(Oc1ccc(Cl)cc1)C(=O)N1CCC(CNC(=O)CCl)CC1
ER [1]
  Kd: 84.3 µM
ER [2]
  EC50: 38.9 µM

## CC(C)(Oc1ccc(Cl)cc1)C(=O)N1CCC(CCNC(=O)CCl)CC1
ER [1]
  Kd: 33.7 µM
ER [2]
  EC50: 32.7 µM

## C=CC(C)(C)OC[C@H]1O[C@H](O[C@@H]2C3=C([C@H](C)COC(C)=O)C[C@H](O)[C@]3(C)/C=C3/[C@@H](COC)CC[C@H]3[C@@H](C)[C@H]2O)[C@H](O)[C@@H](OC(C)=O)[C@@H]1O [FC-A, fusicoccane-A]
14-3-3σ(C42)/ERα-pp
  EC50: 0.216 µM

## C=CC(C)(C)OC[C@H]1O[C@H](O[C@@H]2C3=C([C@H](C)COC(C)=O)C[C@H](O)[C@]3(C)/C=C3/[C@@H](COC)CC[C@H]3[C@@H](C)[C@H]2O)[C@H](O)[C@@H](OC(C)=O)[C@@H]1O [FCA, Fusicoccin A, reference compound]
14-3-3/ERα complex
  stabilization of the 14-3-3/ERα complex: 110 fold
14-3-3/Pin1_72 complex
  SF 8 μM: ~10

## CC(=O)N1CCN(S(=O)(=O)c2ccc(C=O)cc2)CC1 [TCF521-123, 4-[(4-acetylpiperazin-1-yl)sulfonyl]benzaldehyde]
14-3-3/NFκBp65 peptide; highest concentrations tested
  PPI stabilizing activity: only a very weak

## CC1CN(S(=O)(=O)c2ccc(C=O)cc2)CC(C)O1 (stereo not shown) [TCF521-129, 4-[(2,6-dimethylmorpholin-4-yl)sulfonyl]benzaldehyde]
14-3-3/NFκBp65 peptide; read-out: EC50 (stabilizes interaction of peptide with 14-3-3)
  EC50: 370 µM

## O=Cc1ccc(-n2ccnc2-c2ccccc2)c(OC(F)(F)F)c1 [compound 20, 4-(2-phenyl-1H-imidazol-1-yl)-3-(trifluoromethoxy)benzaldehyde]
Pin1_72/14-3-3σΔC
  PDB: electron density due to compound binding: n. bind.

## O=Cc1ccc(-n2ccnc2-c2ccccc2)c(Oc2ccccc2)c1 [compound 21, 3-phenoxy-4-(2-phenyl-1H-imidazol-1-yl)benzaldehyde]
Pin1_72/14-3-3σΔC
  PDB: electron density due to compound binding: n. bind.

## O=Cc1ccc(-n2ccnc2-c2ccc(Br)cc2)cc1Br [compound 24, 2-bromo-4-(2-(4-bromophenyl)-1H-imidazol-1-yl)benzaldehyde]
Pin1_72/14-3-3σΔC
  PDB: electron density due to compound binding: n. bind
Pin1_72/14-3-3γ
  SF (fold stabilization): 3.32
